Patent publication US20070275063A1, “SUSTAINED RELEASE PHARMACEUTICAL COMPOSITIONS AND METHODS OF TREATMENT USING THE SAME” (SmithKline Beecham Corporation, priority 1998, published 2007)
Values after ≈ are worked out from the molar mass of the structure shown.

Tests used:
[1] = human, in vivo
Description: Dose regimens evaluated were: 4 mg once daily and 2 mg twice daily, and 8 mg once daily and 4 mg twice daily.

[2] = tested on: fasting plasma glucose (FPG) concentrations in diabetic patients; assay: PK/PD model (modified indirect response model IV) of the effect of Compound (I) on fasting plasma glucose in Type 2 diabetes patients; assay type: in vivo, human
Source text: The method by which the Threshold Plasma Concentration, such as the SC50 concentration, for a given compound can be determined is:
2) the model predicted concentrations for the compound are then fed back into the model and used to determine the change in fasting plasma glucose levels after various doses;
3) the relationship between predicted plasma concentrations of compound and fasting plasma glucose can suitably be determined using an indirect pharmacological response model (model IV), for example that described in (Dayneka N L, Garg V and Jusko W J, Comparison of Four Basic Models of Indirect Pharmacodynamic Responses. J of Pharmacokinetics and Biopharmaceutics. Vol 21, No 4. 1993). This model yields estimates of glucose input rate (Kin) and output rate (Kout), maximal stimulation of glucose output (Smax). Hill coefficient (gamma) and the Threshold Plasma Concentration, such as the SC50 concentration (i.e the concentration associated with a half maximal response) to be determined for that compound. This method forms a further part of the present invention.
For Compound (I), it was necessary to account for a time delay between the time of actual initiation of dosing (week 0) and the observed change in fasting plasma glucose. This delay factor was estimated through the modelling for each dose level. […] The delay factor was incorporated into the model for deriving fasting plasma glucose by assuming that the first dose of drug occurred only after the time dictated by the delay factor. It is considered that for this model a delay factor would be required for other thiazolidinedione insulin sensitisers and that this factor will be substantially similar to that found for Compound (I). Delay factors for other compounds may also be required to be determined using similar methodology to that disclosed herein.
A modified indirect response model IV (Dayneka et al. 1993) was developed utilizing the pharmacokinetics of Compound (I) as the driving force for the change in fasting plasma glucose after various doses of Compound (I). Modeling fittings were done using ADAPT II, Release 4 (D'Argenio and Schumitzky, 1979).
In the absence of Compound (I), plasma glucose levels are governed by formation (kin) and utilization (kout). The action of Compound (I) was described as stimulation (S(t)) of the utilization of plasma glucose (kout), described in text as FPG reduction (Eq. 1). Smax represents the maximal stimulation, SC50 is the Compound (I) concentration associated with half-maximal stimulation and γ represents a sigmoidicity parameter in the Hill type function (Eq. 2). [formula]
The mean fasting plasma glucose profiles from 6 weeks prior to dosing (time 0) through 26 weeks of treatment for the 5 treatment groups are shown in FIG. 2. The PK/PD model accommodates the full nature of the fasting plasma glucose response over the duration of the study period as evidenced by the close agreement between observed and predicted fasting plasma glucose concentrations (FIG. 2). […] The lag-time allows the model to describe the slow onset of action of Compound (I) observed over the first 4 weeks of dosing.

In the case of `CN(CCOc1ccc(CC2SC(=O)NC2=O)cc1)c1ccccn1` (stereo not shown) [Compound (I), 5-[4-[2-(N-methyl-N-(2-pyridyl)amino)ethoxy]benzyl]thiazolidine-2,4-dione], the “mean post hoc oral clearance” value [1] is reported as 2.68 L/h, the EC50 ([2]; Homo sapiens, iv, estimated pharmacodynamic parameter, not in table, read-out: SC50 (plasma concentration associated with half-maximal effect on fasting plasma glucose)) is reported as 0.0514 µg/mL (≈ 0.144 µM) and the “Smax (maximal stimulation of glucose utilization)” value ([2]; estimated pharmacodynamic parameter) is reported as 0.44. For the same molecule, the “lag-time (delay) between first dose and onset of FPG response” value ([2]; mean across dose levels, estimated through the modelling) was 292 h, the “maximum FPG reduction suggested by Smax of the model” value ([2]; model-derived) was 160 mg/dL and the reduction in glycaemia ([2]; once daily dosing, study 024) was “clinically meaningful reductions in glycaemia are evident”. For the same molecule, the “efficacy of twice daily versus once daily dosing” value ([2]; study 024, same total daily dose) was “twice daily dosing tended to be more efficacious than once daily”.
